What was measured:
HCT-116 cell growth = assay: Whole Cell Cytotoxicity Assay: Sulforhodamine B; type: cell-based, Human; conditions: Homo sapiens, HCT-116; 100 μM compound; 96 hours; SRB staining
Protocol: Human tumor-derived cell lines, HCT116 or MCF7 (ATCC) were plated in a 96 well plate in DMEM containing 10% fetal bovine serum and 2 mM L-glutamine at a density of 500 HCT116 cells or 1,000 MCF7 cells per well and incubated at 37° C., 5% CO2, for 24 hours prior to the addition of experimental compounds. Compounds were added using the dilution series indicated to duplicate plates and the cells were incubated in media plus compound for 96 hours. An additional plate was fixed in 10% TCA at the time of the addition of compound to provide a measurement of the cell population at time zero, the time of drug addition. Following the 96 hour incubation, cells were fixed in situ by gently aspirating off the culture media and then adding 50 ul of ice cold 10% TCA per well and incubation at 4° C. for 60 minutes. The plates were washed with tap water five times and allowed to air dry for 5 minute. 50 ul of a 0.4% (w/v) Sulforhodamine B solution in 1% (v/v) acetic acid was added per well and the cells were incubated for 30 minutes at room temperature. Following staining, plates were washed four times with 1% acetic acid to remove any unbound dye and then allowed to air dry for 5 minutes. The stain was solubilized with 100 ul of 10 mM Tris pH 10.5 per well and placed on an orbital rotator for 5 minutes. The absorbance was read at 570 nm. Percentage growth was calculated using the absorbance readings from the time zero plate (Tz) and the dilution series plate […] which included a column of cells grown in media without compound as a control (C) using the formulas: [(Ti−Tz)/(C−Tz)]×100 for concentrations for which Ti>/=Tz [(Ti−Tz)/Tz]×100 for concentrations for which Ti<Tz.
Three dose response parameters were calculated for each experimental agent. Growth inhibition of 50% (GI50) was calculated from [(Ti−Tz)/(C−Tz)]×100=50, which was the drug concentration resulting in a 50% reduction in the net protein increase (as measured by SRB staining) in control cells during the drug incubation. The drug concentration resulting in total growth inhibition (TGI) was calculated from Ti=Tz. The LC50 (concentration of drug resulting in a 50% reduction in the measured protein at the end of the drug treatment as compared to that at the beginning) indicating a net loss of cells following treatment was calculated from [(Ti−Tz)/Tz]×100=−50. Values are calculated for each of these three parameters if the level of activity was reached; however, if the effect was not reached or was exceeded, the value for that parameter is expressed as greater or less than the maximum or minimum concentration tested.

recombinant Aurora A = target: T1, recombinant Aurora A (Homo sapiens, UniProt O14965); assay: Aurora A (Aurora 2) Inhibition Assay (Z'-Lyte); type: biochemical; conditions: 100 μM compound; ATP 10 μM; 1 h
T1 construct: purchased Upstate, Lake Placid, N.Y
T1 sequence (O14965 1-403): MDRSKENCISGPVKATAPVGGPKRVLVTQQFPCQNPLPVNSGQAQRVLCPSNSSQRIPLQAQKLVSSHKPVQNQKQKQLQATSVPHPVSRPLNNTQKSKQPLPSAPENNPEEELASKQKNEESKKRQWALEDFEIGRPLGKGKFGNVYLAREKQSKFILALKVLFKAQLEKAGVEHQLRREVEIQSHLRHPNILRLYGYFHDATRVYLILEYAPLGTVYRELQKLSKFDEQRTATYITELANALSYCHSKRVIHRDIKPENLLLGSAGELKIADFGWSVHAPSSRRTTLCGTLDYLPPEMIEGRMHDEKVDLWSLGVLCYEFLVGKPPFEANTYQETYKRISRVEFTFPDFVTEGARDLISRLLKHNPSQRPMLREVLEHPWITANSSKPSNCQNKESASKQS
Protocol: Compounds were tested for their potency against recombinant Aurora A (Upstate, Lake Placid, N.Y.) using the PanVera Z'-Lyte kinase assay kit-Ser/[…] peptide (Invitrogen, Carlsbad, Calif.). […] Assays were carried out in half-area 96-well white polystyrene assay plates (Corning, Corning, N.Y.) in a final volume of 20 μl. The reaction was allowed to proceed for 1 h at room temperature in the dark, at which point the development reagent and stop reagent were added according to the manufacturer's instructions. Coumarin (Ex. 400 nm, Em. 465 nm) and fluorescein (Ex. 400 nm, Em. 565 nm) fluorescence values were measured on a SpectraFluor Plus plate reader (Tecan, Durham, N.C.). The emission ratio (coumarin/fluorescein) was determined and used to calculate the percent phosphorylation for each well. […] Typically 20-40% of the substrate was phosphorylated in wells without inhibitor. Dose-response curves of relative Aurora A activity vs. inhibitor concentration were plotted with Grafit (Erithacus Software, Horley, Surrey, UK).

| SMILES | inhibition at 100 µM (recombinant Aurora A) [%] | inhibition at 100 µM (HCT-116 cell growth) [%] |
| --- | --- | --- |
| Cc1cc(Nc2cc(N3CCCCC3)nc(/C=C/c3ccccc3)n2)n[nH]1 [Example 67, N-(5-methyl-1H-pyrazol-3-yl)-6-(piperidin-1-yl)-2-styrylpyrimidin-4-amine] | 100 | 98 |
| Cc1cc(Nc2cc(OCCN(C)C)nc(/C=C/c3ccccc3)n2)n[nH]1 [Example 69] | 100 | 99 |
| Cc1cc(Nc2cc(N3CCN(S(C)(=O)=O)CC3)nc(/C=C/c3ccccc3)n2)n[nH]1 [Example 71, N-(5-methyl-1H-pyrazol-3-yl)-6-(4-methylsulfonylpiperazin-1-yl)-2-styrylpyrimidin-4-amine] | 100 | 98 |
| Cc1cc(Nc2cc(NCCN3CCN(C)CC3)nc(/C=C/c3ccccc3)n2)n[nH]1 [Example 77, N^4-(5-methyl-1H-pyrazol-3-yl)-N^6-(2-(4-methylpiperazin-1-yl)ethyl)-2-styrylpyrimidine-4,6-diamine] | 100 | 99 |
| Cc1cc(Nc2cc(Nc3ccccc3)nc(/C=C/c3ccccc3)n2)n[nH]1 [Example 82, N^4-(5-methyl-1H-pyrazol-3-yl)-N^6-phenyl-2-styrylpyrimidine-4,6-diamine] | 100 | 98 |
| Cc1cc(Nc2cc(N3CCSCC3)nc(/C=C/c3ccccc3)n2)n[nH]1 [Example 83, N-(5methyl-1H-pyrazol-3-yl)-2-styryl-6thiomorpholinopyrimidin-4-amine] | 100 | 98 |

The next lines start with results.

| inhibition at 100 µM (recombinant Aurora A) [%] | SMILES | inhibition at 100 µM (HCT-116 cell growth) [%] |
| --- | --- | --- |
| 100 | Cc1cc(Nc2cc(Nc3ccc(F)cc3)nc(/C=C/c3ccccc3)n2)n[nH]1 [Example 86, N^4-(4-fluorophenyl)-N^6-(5methyl-1H-pyrazol-3-yl)-2-styrylpyrimidine-4,6-diamine] | 98 |
| 100 | Cc1cc(Nc2cc(NC3CCOCC3)nc(/C=C/c3ccccc3)n2)n[nH]1 [Example 99, N^4-(tetrahydro-2H-pyran-4-yl)-N^6-(5-methyl-1H-pyrazol-3-yl)-2-styrylpyrimidine-4,6-diamine] | 98 |
| 100 | Cc1cc(Nc2cc(N3CCN(C)CC3)nc(/C=C/c3ccc(Br)cc3)n2)n[nH]1 [Example 103, 2-(4-bromostyryl)-N-(5-methyl-1H-pyrazol-3-yl)-6-(4-methylpiperazin-1-yl)pyrimidin-4-amine] | 84 |
| 100 | COc1ccc(/C=C/c2nc(Nc3cc(C)[nH]n3)cc(N3CCN(C)CC3)n2)cc1 [Example 160, 2-(4-methoxystyryl)-N-(5-methyl-1H-pyrazol-3-yl)-6-(4-methylpiperazin-1-yl)pyrimidin-4-amine] | 97 |
| 100 | Cc1cc(Nc2cc(NCc3ccco3)nc(/C=C/c3ccccc3)n2)n[nH]1 [Example 162, N^4-((furan-2-yl)methyl)-N^6-(5methyl-1H-pyrazol-3-yl)-2-styrylpyrimidine-4,6-diamine] | 98 |
| 100 | Cc1ccc(/C=C/c2nc(Nc3cc(C)[nH]n3)c(N)c(N3CCN(C)CC3)n2)cc1 [Example 170] | 99 |
| 99 | Cc1cc(Nc2nc(/C=C/c3ccc(Cl)cc3)nc(N3CCN(C)CC3)c2N)n[nH]1 [Example 172] | 99 |
| 100 | Cc1cc(Nc2nc(/C=C/c3ccc(F)cc3)nc(N3CCN(C)CC3)c2N)n[nH]1 [Example 173] | 98 |

From patent US7563787B2, “Substituted pyrazole compounds” (Miikana Therapeutics, Inc., priority 2005, dated 2009)
